Experimental data reported in patent US20180194762A1 (Pharmacyclics LLC, priority 2017, published 2018).

Key:
Type in all cases: biochemical
[1] = biological target: T1, Btk (Homo sapiens, UniProt Q06187); assay: Btk in vitro inhibitory activity (one of Method A TR-FRET, Method B electrophoretic mobility shift, Method C radiometric filter binding); settings: wild-type Btk; read-out: Btk-WT IC50
T1 construct: purified from insect cells as a full-length construct containing a N-terminal 6X-His tag; His6 (N); made in house; host or cells: insect cells (Method C)
T1 sequence (Q06187 whole entry): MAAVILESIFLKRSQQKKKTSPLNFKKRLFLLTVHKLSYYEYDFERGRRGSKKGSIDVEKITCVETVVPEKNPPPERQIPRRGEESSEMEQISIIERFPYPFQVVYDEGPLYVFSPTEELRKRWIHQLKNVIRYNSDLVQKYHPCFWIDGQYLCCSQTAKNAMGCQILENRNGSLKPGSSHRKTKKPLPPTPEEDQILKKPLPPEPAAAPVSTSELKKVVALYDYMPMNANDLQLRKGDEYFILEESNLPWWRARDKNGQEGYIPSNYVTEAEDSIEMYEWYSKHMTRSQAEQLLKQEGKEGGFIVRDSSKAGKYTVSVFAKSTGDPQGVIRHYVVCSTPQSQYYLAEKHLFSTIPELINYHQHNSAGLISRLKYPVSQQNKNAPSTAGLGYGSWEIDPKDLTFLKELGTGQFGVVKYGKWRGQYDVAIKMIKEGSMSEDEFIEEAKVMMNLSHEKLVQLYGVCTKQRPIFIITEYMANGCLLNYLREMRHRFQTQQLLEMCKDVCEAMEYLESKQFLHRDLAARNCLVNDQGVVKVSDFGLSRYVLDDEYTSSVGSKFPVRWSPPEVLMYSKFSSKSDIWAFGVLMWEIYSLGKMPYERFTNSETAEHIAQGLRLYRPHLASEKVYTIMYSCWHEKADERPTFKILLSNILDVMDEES
Procedure, shortened: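 Three alternative formats were used. A radiometric filter-binding read used 8 nM full-length His-BTK with 0.2 mg/mL poly(Glu-Tyr) 4:1 (C); microfluidic separation of 1 μM FAM-peptide by 1 nM BTK gave IC50 from 12-point curves (B); TR-FRET at Km ATP, 0.5 nM Btk, gave Ki(app)-derived IC50 (A).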

[2] = biological target: T2, panel of kinases (Homo sapiens, UniProt P51813); assay: Inhibition of a panel of kinases (in vitro HotSpot kinase assay, 33P-ATP, 1 μM ATP), other kinases; settings: BMX wild-type, read-out: BMX-WT IC50
T2 sequence (P51813 1-675): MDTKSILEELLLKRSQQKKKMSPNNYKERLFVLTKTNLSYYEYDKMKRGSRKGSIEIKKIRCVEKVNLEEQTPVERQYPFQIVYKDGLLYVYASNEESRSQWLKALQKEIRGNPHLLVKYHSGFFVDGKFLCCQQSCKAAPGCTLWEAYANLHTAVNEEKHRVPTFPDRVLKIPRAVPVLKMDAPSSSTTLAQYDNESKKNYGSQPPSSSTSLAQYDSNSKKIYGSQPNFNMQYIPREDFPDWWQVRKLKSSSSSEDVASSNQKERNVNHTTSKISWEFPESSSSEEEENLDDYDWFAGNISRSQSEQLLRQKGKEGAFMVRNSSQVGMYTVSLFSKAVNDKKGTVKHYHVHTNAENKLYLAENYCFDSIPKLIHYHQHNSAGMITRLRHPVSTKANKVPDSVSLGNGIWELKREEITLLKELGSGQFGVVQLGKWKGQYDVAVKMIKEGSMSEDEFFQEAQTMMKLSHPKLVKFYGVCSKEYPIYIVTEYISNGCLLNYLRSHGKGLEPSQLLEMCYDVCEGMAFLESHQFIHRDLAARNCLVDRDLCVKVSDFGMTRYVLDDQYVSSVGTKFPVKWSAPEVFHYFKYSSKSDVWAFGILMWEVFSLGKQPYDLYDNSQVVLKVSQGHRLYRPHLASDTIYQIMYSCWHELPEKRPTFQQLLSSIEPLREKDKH
Procedure, shortened: (§1)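 Radiometric read-out: 33P transfer to a suitable substrate by each purified enzyme, ATP at 1 μM. Values are degree of inhibition.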

[3] = biological target: T3, TEC (Homo sapiens, UniProt P42680); assay: Inhibition of a panel of kinases (in vitro HotSpot kinase assay, 33P-ATP, 1 μM ATP); settings: HotSpot kinase assay, 1 μM ATP
T3 sequence (P42680 1-631): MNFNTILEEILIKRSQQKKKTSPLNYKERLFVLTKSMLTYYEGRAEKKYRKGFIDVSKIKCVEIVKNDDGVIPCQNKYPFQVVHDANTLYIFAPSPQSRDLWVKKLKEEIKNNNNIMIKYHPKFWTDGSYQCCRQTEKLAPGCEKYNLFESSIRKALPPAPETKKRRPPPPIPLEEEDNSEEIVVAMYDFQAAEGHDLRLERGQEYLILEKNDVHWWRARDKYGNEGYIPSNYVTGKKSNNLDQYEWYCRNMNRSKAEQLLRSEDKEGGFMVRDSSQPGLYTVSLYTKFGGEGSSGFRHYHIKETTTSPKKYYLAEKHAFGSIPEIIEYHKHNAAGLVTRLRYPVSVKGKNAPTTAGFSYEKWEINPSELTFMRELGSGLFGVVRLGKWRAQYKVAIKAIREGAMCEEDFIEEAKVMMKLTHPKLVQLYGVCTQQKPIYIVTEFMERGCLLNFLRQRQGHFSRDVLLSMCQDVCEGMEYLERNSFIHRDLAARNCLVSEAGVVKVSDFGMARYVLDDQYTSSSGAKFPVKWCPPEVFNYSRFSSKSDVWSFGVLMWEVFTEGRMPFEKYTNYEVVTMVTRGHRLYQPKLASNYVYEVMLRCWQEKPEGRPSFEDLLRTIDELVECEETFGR
Procedure, shortened: as §1

SMILES: C=CC(=O)N[C@@H]1CCN(c2n[nH]c3nccc(-c4ccc(CNC(=O)c5nc6ccccc6o5)c(F)c4)c23)C1 [Example 395, N-{[2-fluoro-4-(3-{(3R)-3-[(prop-2-enoyl)amino]pyrrolidin-1-yl}-1H-pyrazolo[3,4-b]pyridin-4-yl)phenyl]methyl}-1,3-benzoxazole-2-carboxamide]
- IC50 [1]: 0.00119 µM
- IC50 [2]: 0.0303 µM
- IC50 [3]: 0.0526 µM

SMILES: C[C@@H](NC(=O)c1nc(C(C)(C)C)no1)c1ccc(-c2ccnc3[nH]nc(N4CCC(NS(C)(=O)=O)CC4)c23)cc1 [Example 396, 3-tert-butyl-N-{(1R)-1-[4-(3-{4-[(methanesulfonyl)amino]piperidin-1-yl}-1H-pyrazolo[3,4-b]pyridin-4-yl)phenyl]ethyl}-1,2,4-oxadiazole-5-carboxamide]
- IC50 [1]: 0.000488 µM
- IC50 [2]: 1.19 µM
- IC50 [3]: 0.235 µM

SMILES: C[C@@H](NC(=O)c1cc(C(C)(C)O)on1)c1ccc(-c2ccnc3[nH]nc(NC4CCCC4)c23)cc1 [Example 397, N-[(1R)-1-{4-[3-(cyclopentylamino)-1H-pyrazolo[3,4-b]pyridin-4-yl]phenyl}ethyl]-5-(2-hydroxypropan-2-yl)-1,2-oxazole-3-carboxamide]
- IC50 [1]: 0.382 µM
- IC50 [2]: 3.36 µM
- IC50 [3]: 6.06 µM

SMILES: CC(C)(C#N)c1cc(C(=O)NCc2ccc(-c3ccnc4[nH]nc(N5CC[C@@H](N)C5)c34)cc2F)no1 [Example 401, N-[(4-{3-[(3R)-3-aminopyrrolidin-1-yl]-1H-pyrazolo[3,4-b]pyridin-4-yl}-2-fluorophenyl)methyl]-5-(2-cyanopropan-2-yl)-1,2-oxazole-3-carboxamide]
- IC50 [1]: 0.0338 µM
- IC50 [2]: 0.885 µM
- IC50 [3]: 1.28 µM

SMILES: C=CC(=O)N[C@@H]1CCN(c2n[nH]c3nccc(-c4ccc(CNC(=O)c5cc(C(C)(C)C#N)on5)c(F)c4)c23)C1 [Example 402, 5-(2-cyanopropan-2-yl)-N-{[2-fluoro-4-(3-{(3R)-3-[(prop-2-noyl)amino]pyrrolidin-1-yl}-1H-pyrazolo[3,4-b]pyridin-4-yl)phenyl]methyl}-1,2-oxazole-3-carboxamide]
- IC50 [1]: 0.000222 µM
- IC50 [2]: 0.0169 µM
- IC50 [3]: 0.00648 µM

SMILES: CC(=O)N[C@@H]1CCN(c2n[nH]c3nccc(-c4ccc(CNC(=O)c5cc(C(C)(C)C#N)on5)c(F)c4)c23)C1 [Example 403, N-[(4-{3-[(3R)-3-acetamidopyrrolidin-1-yl]-1H-pyrazolo[3,4-b]pyridin-4-yl}-2-fluorophenyl)methyl]-5-(2-cyanopropan-2-yl)-1,2-oxazole-3-carboxamide]
- IC50 [1]: 0.0173 µM
- IC50 [2]: 1.81 µM
- IC50 [3]: 1.4 µM

SMILES: C[C@@H](NC(=O)c1cc(C(C)(C)O)on1)c1ccc(-c2ccnc3[nH]nc(N4CCOCC4)c23)cc1 [Example 404, 5-(2-hydroxypropan-2-yl)-N-[(1R)-1-{4-[3-(morpholin-4-yl)-1H-pyrazolo[3,4-b]pyridin-4-yl]phenyl}ethyl]-1,2-oxazole-3-carboxamide]
- IC50 [1]: 0.018 µM
- IC50 [2]: 0.498 µM
- IC50 [3]: 0.685 µM

SMILES: CC(C)c1noc(C(=O)N[C@H](C)c2ccc(-c3ccnc4[nH]nc(N5CCS(=O)(=O)CC5)c34)cc2)n1 [Example 405, N-[(1R)-1-{4-[3-(1,1-dioxo-1λ^6-thiomorpholin-4-yl)-1H-pyrazolo[3,4-b]pyridin-4-yl]phenyl}ethyl]-3-(propan-2-yl)-1,2,4-oxadiazole-5-carboxamide]
- IC50 [1]: 0.031 µM
- IC50 [2]: 3.3 µM
- IC50 [3]: 2.38 µM

SMILES: C[C@@H](NC(=O)c1cc(C(C)(C)O)on1)c1ccc(-c2ccnc3[nH]nc(N4CCS(=O)(=O)CC4)c23)cc1 [Example 406, N-[(1R)-1-{4-[3-(1,1-dioxo-1λ^6-thiomorpholin-4-yl)-1H-pyrazolo[3,4-b]pyridin-4-yl]phenyl}ethyl]-5-(2-hydroxypropan-2-yl)-1,2-oxazole-3-carboxamide]
- IC50 [1]: 0.0929 µM
- IC50 [2]: 5.32 µM
- IC50 [3]: 4.74 µM

SMILES: CC(=O)N1C[C@H](Nc2n[nH]c3nccc(-c4ccc(CNC(=O)c5nc(C(C)(C)C)no5)c(F)c4)c23)CC[C@@H]1C [Example 408, N-{[4-(3-{[(3R,6S)-1-acetyl-6-methylpiperidin-3-yl]amino}-1H-pyrazolo[3,4-b]pyridin-4-yl)-2-fluorophenyl]methyl}-3-tert-butyl-1,2,4-oxadiazole-5-carboxamide]
- IC50 [1]: 0.000413 µM
- IC50 [2]: 0.874 µM
- IC50 [3]: 0.11 µM

SMILES: C[C@H]1CC[C@@H](Nc2n[nH]c3nccc(-c4ccc(CNC(=O)c5nc(C(C)(C)C)no5)c(F)c4)c23)CN1C(=O)N1CCOCC1 [Example 409, 3-tert-butyl-N-{[2-fluoro-4-(3-{[(3R,6S)-6-methyl-1-(morpholine-4-carbonyl)piperidin-3-yl]amino}-1H-pyrazolo[3,4-b]pyridin-4-yl)phenyl]methyl}-1,2,4-oxadiazole-5-carboxamide]
- IC50 [1]: 0.000546 µM
- IC50 [2]: 0.863 µM
- IC50 [3]: 0.177 µM

SMILES: COC(=O)N1C[C@H](Nc2n[nH]c3nccc(-c4ccc(CNC(=O)c5nc(C(C)(C)C)no5)c(F)c4)c23)CC[C@@H]1C [Example 410, methyl (2S,5R)-5-{[4-(4-{[(3-tert-butyl-1,2,4-oxadiazole-5-carbonyl)amino]methyl}-3-fluorophenyl)-1H-pyrazolo[3,4-b]pyridin-3-yl]amino}-2-methylpiperidine-1-carboxylate]
- IC50 [1]: 0.00108 µM
- IC50 [2]: 2.02 µM
- IC50 [3]: 0.542 µM

SMILES: C[C@H]1CC[C@@H](Nc2n[nH]c3nccc(-c4ccc(CNC(=O)c5nc(C(C)(C)C)no5)c(F)c4)c23)CN1C1COC1 [Example 411, 3-tert-butyl-N-{[2-fluoro-4-(3-{[(3R,6S)-6-methyl-1-(oxetan-3-yl)piperidin-3-yl]amino}-1H-pyrazolo[3,4-b]pyridin-4-yl)phenyl]methyl}-1,2,4-oxadiazole-5-carboxamide]
- IC50 [1]: 0.00953 µM
- IC50 [2]: 9.39 µM
- IC50 [3]: 2.27 µM

SMILES: C[C@H]1CC[C@@H](Nc2n[nH]c3nccc(-c4ccc(CNC(=O)c5ccc(C(C)(C)O)cc5F)c(F)c4)c23)CN1C(=O)N(C)C [Example 414, (2S,5R)-5-{[4-(3-fluoro-4-{[2-fluoro-4-(2-hydroxypropan-2-yl)benzamido]methyl}phenyl)-1H-pyrazolo[3,4-b]pyridin-3-yl]amino}-N,N,2-trimethylpiperidine-1-carboxamide]
- IC50 [1]: 0.0592 µM
- IC50 [2]: 3.25 µM
- IC50 [3]: 1.04 µM

SMILES: C[C@H]1CC[C@@H](Nc2n[nH]c3nccc(-c4ccc(CNC(=O)c5nc6c(s5)CCCC6)c(F)c4)c23)CN1C(=O)N(C)C [Example 415, N-{[4-(3-{[(3R,6S)-1-(dimethylcarbamoyl)-6-methylpiperidin-3-yl]amino}-1H-pyrazolo[3,4-b]pyridin-4-yl)-2-fluorophenyl]methyl}-4,5,6,7-tetrahydro-1,3-benzothiazole-2-carboxamide]
- IC50 [1]: 0.0281 µM
- IC50 [2]: 3 µM
- IC50 [3]: 2.15 µM

SMILES: C[C@H]1CC[C@@H](Nc2n[nH]c3nccc(-c4ccc(CNC(=O)c5cc(C(C)(C)O)on5)c(F)c4)c23)CN1C(=O)N(C)C [Example 418, (2S,5R)-5-({4-[3-fluoro-4-({[5-(2-hydroxypropan-2-yl)-1,2-oxazole-3-carbonyl]amino}methyl)phenyl]-1H-pyrazolo[3,4-b]pyridin-3-yl}amino)-N,N,2-trimethylpiperidine-1-carboxamide]
- IC50 [1]: 0.0506 µM
- IC50 [2]: 3.82 µM
- IC50 [3]: 3.08 µM
